Experimental data taken from publication PMC12757955, “A nonavalent BODIPY with a multivalent arrangement of α-mannosides enables lectins recognition in fluorescence-based assays” (RSC Chemical Biology, 2025).

Columns and labels:
[1] = target: T1, ConA (Canavalia ensiformis, UniProt P02866)
T1 construct: purchased Sigma Aldrich L7647-100MG
Method: Accordingly, preliminary agglutination experiments were performed by following a previously reported protocol,[28] thus expecting aggregation of lectin with the mannosylated BODIPYs driven by the molecular recognition of the mannose residues on the fluorescent probes. Accordingly, Tris-BODIPY-OH was used as a negative control. The changes in the absorption (λ = 490 nm) of the solutions of the glycoBODIPYs treated with a fixed concentration of ConA (20 µM in HEPES 25 mM, pH 7.6, 1 mM CaCl2, 1 mM MnCl2) were monitored over time (0–30 min, Fig. 3A).
Data are normalized according to the maximum optical density value.
A solution of ConA (20 µM) in the buffer (HEPES 25 mM pH 7.6, 1 mM CaCl2, 1 mM MnCl2) was prepared. In a 96-well plate (Microplate, 96 wells, PS, F-BOTTOM (CHIMNEY WELL), clear, non-binding) were placed 100 µL of the 20 µM solution of each BODIPY, then 100 µL of the solution of ConA was added. The mixture was gently shaken for 10 minutes, then the optical density at λ = 490 nm was measured every minute for 30 minutes. The measurements were carried out in triplicate.

[2] = target: T2, concanavalin A (ConA) (Canavalia ensiformis, UniProt P02866); experiment: Fluorescence polarization (FP) titration of BODIPY probes with ConA; assay type: binding; conditions: probe 0.5 µM, increasing ConA
T2 construct: purchased Sigma Aldrich L7647-100MG
Method: All experiments were conducted at 25 °C.
(§1) All experiments were performed at room temperature (25 °C).

[3] = target: T1, ConA; assay type: binding; conditions: BODIPY 500 nM, ConA 500 nM
Method: Accordingly, FLIM was used in this work to directly visualize the formation of the glycoBODIPY/ConA complexes. […] The color scale in the images corresponds to the dye lifetime measured by FLIM for each pixel in the image.
Fig. 4 FLIM images measured for: (left panels) the (free) BODIPY solutions 500 nM in HEPES 25 mM pH 7.6, 1 mM CaCl2, 1 mM MnCl2 and for (right panels) solutions of the BODIPYs (500 nM) combined with ConA (500 nM in HEPES 25 mM pH 7.6, 1 mM CaCl2, 1 mM MnCl2).
FLIM was performed at room temperature (20 °C) on a Nikon Ti AX-R NSPARC confocal microscope using a Nikon Plan Apo λD 100× oil immersion objective (NA = 1.45). The microscope is equipped with a two-channel PicoQuant FLIM compact module system. Images of 1024 × 1024 pixels were acquired using a 488 nm pulsed laser for excitation and recording photons of fluorescence emission at a wavelength of 620 ± 50 nm for 90 s at a frequency of 25 MHz through a PMA Hybrid single photon counting module and a MultiHarp 150 multichannel event timer. Lifetime histograms were calculated and analyzed using SymphoTime©. Samples were inserted into LabteK chambers, and the images were acquired at 10 µm from the coverslip to avoid interactions of the dye with the surface of the coverslip.

[4] = target: T1, ConA; assay type: binding; conditions: FCS, probe 500 nM, ConA 50 nM
Method: 500 nM solution of each dye in the absence or presence of 50 nM ConA was placed in a glass-bottom ibidi 18-well µ-slides, precoated with albumin (Sigma Aldrich) to reduce dye adsorption to the surface. FCS experiments were performed with an Abberior Instruments microscope in the confocal mode using the Olympus UPlanSApo 60×/1.2 water immersion objective and steered through the Imspector software. Fluorescence was excited by a 561 nm pulsed excitation laser at an average power of around 10 µW, and detected by an avalanche photodiode through a 0.9 Airy-unit pinhole and a 580–630 nm emission filter (Semrock). Intensity fluctuations were acquired in 2 µs bins for 15–120 seconds at least 5 times per sample. The intensity traces were autocorrelated and further analysed with the open source FoCuS-scan software (https://github.com/dwaithe/FCS_scanning_correlator)[41] employing the 3D-diffusion model (fits in Fig. 8) with the aspect ratio of the optical point-spread-function and anomalous diffusion exponent fixed to 10 and 0.9, respectively.

[5] = target: T1, ConA; experiment: Competitive fluorescence polarization assay (displacement of Man9-BODIPY from ConA); assay type: binding
Method: Titration experiments allowed us to define the concentration of ConA to be used in a competitive displacement assay, which was set to 2 µM.
The fluorescence polarization is expressed in millipolarization (mP) units (A).
as §1

CO[C@H]1O[C@H](CO)[C@@H](O)[C@H](O)[C@@H]1O [α-O-methyl-D-mannopyranoside]
Deagglutination of glycoBODIPYs/ConA aggregates ([1]; 50 mM competitor added, optical density at 490 nm): fast deagglutination process

CC1=C(C#CCOCC(CO)(CO)CO)C(C)=[N+]2C1=C(c1ccc(-n3cc(COCC(CO)(CO)CO)nn3)cc1)c1c(C)c(C#CCOCC(CO)(CO)CO)c(C)n1[B-]2(F)F [Tris-BODIPY-OH]
Binding to ConA in FP titration (in words) [2]: did not bind to ConA | Change of fluorescence lifetime histogram in the presence of ConA [3]: the peak of the histogram is unchanged | Shift of the autocorrelation curve in the presence of ConA [4]: no shift was observed | Change of turbidity / absorption (λ = 490 nm) over time with ConA ([1]; BODIPY 20 µM solution, ConA 20 µM solution, HEPES pH 7.6, 0–30 min): No change in the absorption

OC[C@H]1OC(O)[C@@H](O)[C@@H](O)[C@@H]1O (stereo partly drawn) [D-mannose]
Competitive displacement of the probe (in words) [5]: competitively displaced the probe | mP0 [5]: 113.9 ± 4.0 | mPmax [5]: 432 ± 13
